Patent US4197403A, “4-Aminosubstituted imidazo(1,2-A)quinoxalines” (Westwood Pharmaceuticals Inc., priority 1977, dated 1980)
Converted amounts (≈) assume the structure as drawn. One block for each compound: values may come before it.

Experiments:
rat paw edema = experiment: Rat paw edema assay, oral dosing; assay type: in vivo; details: four hours after drug; for change in vivo at 100 mg/kg / change in vivo at 400 mg/kg: Rattus norvegicus, 4 h, read-out: % Difference from Control
Procedure: (§1) The anti-inflammatory activity of representative compounds of this invention was determined by the rat paw edema assay both by local administration (Table XI below) and by oral dosing (Table XII below). For the oral dosing, the procedure of C. A. Winter, E. A. Risley and G. W. Nuss, Proc. Soc. Exp. Biol. Med. 111, 544 (1962) was employed with measurement taken four hours after the drug was administered.
(§2) Tables XI and XII report the anti-inflammatory activity of the compounds tested as % difference in the edema or swelling as compared with the control. These Tables also give the response in many instances of more than one dose level of the same drug.

Trichophyton ajelloi = experiment: Antifungal activity, agar dilution method: T. ajelloi; assay type: cell-based; details: Arthroderma uncinatum, read-out: Antifungal Activity, Parts Per Million Inhibitions of Fungus and Yeast Species: T. ajelloi
Procedure: (§3) Various compounds of this invention display antifungal and anti-yeast activity.
(§4) In Table IX below are listed the antifungal activity of a number of compounds encompassed in the present invention. These were determined by the agar dilution method as described in Chapters 2 and 3 of Methods in Microbiology, Vol. 7B, edited by J. R. Norris and D. W. Ribbons, Academic Press, New York, 1972.

[1] = test system: Trichophyton mentagrophytes (ATCC No. 8757 and 9129); experiment: Antifungal activity, agar dilution method: T. mentagrophytes; assay type: cell-based; details: ATCC8757, agar dilution, read-out: Antifungal Activity, Parts Per Million Inhibitions of Fungus and Yeast Species: T. mentagrophytes
Procedure: as §3, §4

[2] = test system: Trichophyton rubrum (ATCC No. 10218 and 14001); experiment: Antifungal activity, agar dilution method: T. rubrum; assay type: cell-based; details: for Antifungal Activity, Parts Per Million Inhibitions of Fungus and Yeast Species: T. rubrum: agar dilution
Procedure: as §3, §4

[3] = Immunosuppressant activity (in words)
[4] = test system: carrageenan rat paw edema; experiment: Rat paw edema assay, local administration; assay type: in vivo; details: injected directly into paw, 1 μg, read-out: % Difference from Control
Procedure: as §1
The local administration tests were carried out similarly except the irritant (carrageenan) and the test compound were injected simultaneously at time zero.
as §2

Candida tropicalis = experiment: Antifungal activity, agar dilution method: C. tropicalis; assay type: cell-based; details: read-out: Antifungal Activity, Parts Per Million Inhibitions of Fungus and Yeast Species: C. tropicalis
Procedure: as §3, §4

Structure (SMILES): Cc1cccc(C(=O)Nc2ccccc2-n2ccnc2)c1 [Compound 36]
% Difference from Control (rat paw edema; 100 mg/kg): -7%
% Difference from Control (rat paw edema; 400 mg/kg): -68%

MIC (Trichophyton ajelloi): 100 µg/mL (≈ 292 µM)
MIC [1]: 100 µg/mL (≈ 292 µM)
Structure (SMILES): O=C(Nc1ccccc1-n1ccnc1)c1cccc(Br)c1 [Compound 59]

MIC (Trichophyton ajelloi): 100 µg/mL (≈ 289 µM)
MIC [1]: 100 µg/mL (≈ 289 µM)
MIC ([2]; Trichophyton rubrum, ATCC10218, agar dilution, read-out: Antifungal Activity, Parts Per Million Inhibitions of Fungus and Yeast Species: T. rubrum): 100 µg/mL (≈ 289 µM)
Structure (SMILES): O=C(Nc1cccc(C(F)(F)F)c1)Nc1ccccc1-n1ccnc1 [Compound 82]

Structure (SMILES): c1ccc2c(c1)ncc1nccn12 [Compound 109, imidazo[1,2-a]quinoxaline]
immunosuppressant activity [3]: lacks immunosuppressant activity

Structure (SMILES): CCCCCc1nc2ccccc2n2ccnc12 [Compound 114]
change in vivo at 0.001 mg [4]: -68.2%

MIC (Trichophyton ajelloi): 100 µg/mL (≈ 374 µM)
Structure (SMILES): CCCCCCCc1nc2ccccc2n2ccnc12 [Compound 116]

Structure (SMILES): CCCCCCCCCCCCCCCc1nc2ccccc2n2ccnc12 [Compound 119]
Antifungal Activity, Parts Per Million Inhibitions of Fungus and Yeast Species: T. rubrum [2]: 8 Parts Per Million

Structure (SMILES): CCCCCCCCCCCCCCCCCc1nc2ccccc2n2ccnc12 [Compound 120]
Antifungal Activity, Parts Per Million Inhibitions of Fungus and Yeast Species: T. rubrum [2]: 1 Parts Per Million

Structure (SMILES): FC(F)(F)c1nc2ccccc2n2ccnc12 [Compound 122]
change in vivo at 100 mg/kg (rat paw edema; 100 mg/kg): -17%
change in vivo at 400 mg/kg (rat paw edema; 400 mg/kg): -68%

Structure (SMILES): c1ccc(-c2nc3ccccc3n3ccnc23)cc1 [Compound 131, 4-phenylimidazo[1,2-a]quinoxaline]
immunosuppressant activity [3]: only minor activity

Structure (SMILES): CC(=O)Nc1ccc(-c2nc3ccccc3n3ccnc23)cc1 [Compound 155]
change in vivo at 100 mg/kg (rat paw edema; 100 mg/kg): 70%
change in vivo at 400 mg/kg (rat paw edema; 400 mg/kg): -25%

MIC (Candida tropicalis): 100 µg/mL (≈ 330 µM)
Structure (SMILES): CC(=O)Oc1ccc(-c2nc3ccccc3n3ccnc23)cc1 [Compound 163]
